Laboratory results: patent publication US10919941B2, “Functional lipid constructs” (KODE BIOTECH LIMITED, priority 2007, dated 2021)
No end group written: not given here.

Key:
Format in all cases: cell-based, human
[1] = system: TAP1 serum (Taiwan Miltenberger antibody positive sample); test: Anti-MUT serum (TAP1) reactivity of modified RBCs (saline and AHG); parameters: key: 0 or ‘−’ no agglutination; 0 or ‘−’ no agglutination; 1+ or 3=very weak agglutination; 1+ or 3=very weak agglutination; 2+ or 5=weak agglutination; 2+ or 5=weak agglutination; 3+ or 8=moderate strong agglutination; 3+ or 8=moderate strong agglutination; 4+ or 10/12=strong agglutination; 4+ or 10/12=strong agglutination; 4+ or 10/12=strong agglutination; details: construct 50 μg/ml (2 hours, 37° C.)
Protocol: (§1) The suspensions are either: • 1. incubated for 2 hours at 37° C. before being washed and suspended in a cell medium for serological analysis at a concentration of 0.8 to 3% (Method 1); or • 2. incubated for 3 to 4 hours at room temperature (circa 25° C.) followed by 18 hours at 4° C. before being washed and suspended in a cell medium for serological analysis at a concentration of 0.8 to 3% (Method 2).
(§2) Serological reactions are graded or scored by either of two established systems (0 or ‘−’ no agglutination, 1+ or 3=very weak agglutination, 2+ or 5=weak agglutination, 3+ or 8=moderate strong agglutination, 4+ or 10/12=strong agglutination)

[2] = system: Miltenberger antibody positive sera; test: BioVue AHG card column agglutination serology of modified red blood cells; parameters: key: 0 or ‘−’ no agglutination; 0 or ‘−’ no agglutination; 1+ or 3=very weak agglutination; 1+ or 3=very weak agglutination; 2+ or 5=weak agglutination; 2+ or 5=weak agglutination; 3+ or 8=moderate strong agglutination; 3+ or 8=moderate strong agglutination; 4+ or 10/12=strong agglutination; 4+ or 10/12=strong agglutination; 4+ or 10/12=strong agglutination; details: construct 50 μg/ml
Protocol: (§3) Red blood cells are modified by mixing 1 part by volume of washed packed red blood cells with 1 part by volume of peptide-lipid construct dispersed at a concentration of 10 to 1000 pg/ml in cell media (Celpresol™).
as §1, §2
(§4) Serological platforms used are Tube (addition of reagents and reactants into plastic or glass serology tubes and after appropriate incubations, washing and centrifugation observing reactions macroscopically by eye and a 10× magnification eyepiece and scoring) and BioVue™ (addition of reactants into cassettes containing beads (including some reactants) and after appropriate incubations and centrifugation observing the reaction patterns trapped within the Gel matrix). BioVue is the serological column agglutination platform of Ortho-Clinical Diagnostics. Diamed is the serological column agglutination platform of Diamed AG.

[3] = system: Miltenberger Antibody Positive Panel; test: Reactivity of modified RBCs against the Miltenberger Antibody Positive Panel; parameters: key to score vs panel 15 TAP2 / score vs panel 4 T7202 / score vs panel 8 T5896 / score vs panel 2 T217 / score vs panel 3 T165 / score vs panel 14 TAP1 / score vs panel 10 Mia / score vs panel 11 Mur / score vs panel 12 Gam / score vs panel 6 T6025 / score vs panel 7 T8445 / score vs panel 9 MIII / score vs panel 13 BoxH / reactivity with Panel Serum #7 (T8445) / agglutination score, Panel Serum #7 (T8445): 0 or ‘−’ no agglutination; 0 or ‘−’ no agglutination; 1+ or 3=very weak agglutination; 1+ or 3=very weak agglutination; 2+ or 5=weak agglutination; 2+ or 5=weak agglutination; 3+ or 8=moderate strong agglutination; 3+ or 8=moderate strong agglutination; 4+ or 10/12=strong agglutination; 4+ or 10/12=strong agglutination; 4+ or 10/12=strong agglutination; details: for score vs panel 2 T217 / score vs panel 3 T165 / score vs panel 4 T7202 / score vs panel 8 T5896 / score vs panel 14 TAP1 / score vs panel 15 TAP2: Table 8, construct 50 μg/ml
Protocol: as §3, §1, §2, §4

[4] = system: antibody negative serums; test: False positive reactions of modified RBCs with antibody negative serums/plasma; parameters: key to Reaction score BioVue AHG, PAC samples 1-46, 49, 50, 52, 53 / Reaction score BioVue AHG, PAC sample 47 / Reaction score BioVue AHG, PAC sample 48 / Reaction score BioVue AHG, PAC sample 51 / agglutination score, T series serum 2 / agglutination score, T series serum 42 / agglutination score, T series serum 63 / agglutination score, T series serum 62 / agglutination score, T series serum 7 / agglutination score, T series serum 20 / agglutination score, T series serum 48 / agglutination score, T series serum 22 / agglutination score, T series serum 39 / agglutination score, T series serum 23 / agglutination score, T series serum 30 / agglutination score, T series serum 4 / agglutination score, T series serum 31 / agglutination score, T series serum 44 / agglutination score, T series serum 61 / agglutination score, T series serum 18 / agglutination score, T series serum 21 / agglutination score, T series serum 28 / agglutination score, T series serum 55 / agglutination score, false positive serum T18 / agglutination score, false positive serum T21 / agglutination score, false positive serum T28 / agglutination score, false positive serum T55 / agglutination score, false positive serum T78 / agglutination score, false positive serum T92: 0 or ‘−’ no agglutination; 0 or ‘−’ no agglutination; 1+ or 3=very weak agglutination; 1+ or 3=very weak agglutination; 2+ or 5=weak agglutination; 2+ or 5=weak agglutination; 3+ or 8=moderate strong agglutination; 3+ or 8=moderate strong agglutination; 4+ or 10/12=strong agglutination; 4+ or 10/12=strong agglutination; 4+ or 10/12=strong agglutination
[5] = blood donor plasma, construct 50 μg/ml (2 hours, 37° C.)

Substance	Reactivity with anti-MUT serum TAP1 [1]	BioVue score vs TAP1 [2]	BioVue score vs positive sample 2 T217 (T) [2]	BioVue score vs positive sample 3 T165 (Mur) [2]	BioVue score vs positive sample 4 T7202 (M) [2]	BioVue score vs positive sample 8 T5896 (M + K + Mur) [2]	sensitivity and specificity towards a human polyclonal antibody panel compared with sequence 1 ([3]; MUT peptides, prior art sequence 1)	score vs panel 2 T217 [3]	score vs panel 3 T165 [3]	score vs panel 4 T7202 [3]	score vs panel 8 T5896 [3]	score vs panel 14 TAP1 [3]	score vs panel 15 TAP2 [3]	Reaction score BioVue AHG, PAC sample 47 [4, 5]	Reaction score BioVue AHG, PAC sample 48 [4, 5]	Reaction score BioVue AHG, PAC sample 51 [4, 5]	Reaction score BioVue AHG, PAC samples 1-46, 49, 50, 52, 53 [4, 5]	% False Positives ([4]; panel of blood donor plasma samples (PAC), BioVue AHG, construct 50 μg/ml) [%]
M37: DOPE peptide-lipid construct: MUTK peptide TNDKHKRDTYP, leader c, spacer CMG(2) (TNDKHKRDTYPC; also: DOPE peptide-lipid construct via leader Cys, spacer CMG(2))	8	8	5	0	8	0	superior sensitivity and specificity	5	0	8	0	8	0	0	0	0	0	0
M35: DOPE peptide-lipid construct: MUTK peptide QTNDKHKRDT, leader c, spacer CMG(2) (QTNDKHKRDTC; also: DOPE peptide-lipid construct via leader Cys, spacer CMG(2))	5	5	0	0	0	0	–	0	0	0	0	5	0	–	–	–	–	–
